Experimental data as given in patent US20240238417A1, “METHODS OF PRODUCING TUMOR VACCINES AND USES THEREOF” (priority 2021, published 2024).

Tests used:
CT26 tumor = assay: Combined gNO and surgery, CT26 tumor recurrence; assay type: in vivo, mice; conditions: then excision
Protocol: The following in vivo experimental procedures were carried out in accordance with the protocol approved by the Ethics Committee on the Use and Care of Animals. Institutional Animal Care and Use Committee (IACUC): IL-20-3-149.
CT26 tumor-bearing mice were treated with 20,000 ppm and 50,000 ppm gNO intra-tumorally for 5 minutes. Up to fourteen days post gNO treatment, all tumors were excised, and the recurrence rate was monitored for 89 days post-excision. Tumor recurrence was detected 17 days post treatment.

Panc02.03 cells = assay: XTT viability of Panc02.03 cells after gas exposure in chamber; assay type: cell-based; conditions: 10,000 ppm-25,000 ppm gNO for 1-15 minutes
Text: Tumor celllines: The mouse colon carcinoma cell line, CT26WT, was cloned from CT26, an N-nitroso-N-methylurethane-induced, undifferentiated colon carcinoma cell line. The mouse mammary tumor cell line, 4T1, is a 6-thioguanine resistant cell line. When injected into BALB/c mice, 4T1 spontaneously produces highly metastatic tumors that can metastasize to the lung, liver, lymph nodes and brain while the primary tumor is growing in situ. […] Panc 02.03 is a pancreatic adenocarcinoma epithelial cell line derived in 1995 from a primary tumor removed from the head-of-the-pancreas of […] with pancreatic adenocarcinoma. CT26, 4T1 and Panc 02.03 cell lines were grown in RPMI based media (ATCC 30-2001) supplemented with fetal bovine serum and pen-strep (both from Biological Industries). The LLC1/LU2 cell line was grown in DMEM based media (ATCC 30-2002) supplemented with fetal bovine serum and pen-strep (Biological industries). The B16.F10 cell lines was grown in DMEM based media (ATCC 30-2002) supplemented with fetal bovine serum and pen-strep (Biologicalindustries).
In vitro systems: One system involves a direct exposure of cancer cells to gNO in 96-well plate. Gaseous NO at 150 ppm-50,000 ppm was delivered at 0.3 LPM for 10 seconds—3 minutes. In another system, cancer cells were exposed to gNO in a box made of acrylic glass. […]

LLC1 challenge tumor = assay: Challenge assay in LLC1 tumor-bearing mice; assay type: in vivo; conditions: 50,000 ppm NO intra-tumorally for 10 minutes; 9 days post challenge tumor inoculation
Protocol: (§1) Challenge tumor inoculation: Up to 21 days after gas treatment was applied to the primary tumor, the appropriate cancer cell suspensions were prepared as described herein and inoculation of cells was repeated on the contralateral flank of the mice. Administration was performed as soon as possible following cell suspension preparation and after manual shaking prior to withdrawal of the cell suspension.
(§2) The percentage of challenge tumor take was monitored 2-3 times a week by taking a look at the inoculated site and touching this area to look for small tumors that are not yet visible. Naïve mice inoculated with tumor cells for the first time served as an internal control.
gNO local administration was tested in a Challenge assay, as depicted in FIG. 15A, in order to evaluate whether treating the primary tumor by gNO based ablation stimulates an anti-tumor immune response that results in rejection of a secondary tumor inoculation. A secondary, “challenge”, tumor cells inoculation also serves as a metastasis model.
LLC1 tumor-bearing mice were treated with 50,000 ppm NO administered intra-tumorally by a 23G hypodermic needle for 10 minutes. Up to 2 weeks post the first gas treatment all gas-treated mice were re-inoculated with 2.5×10^5 LLC1 cells suspended in 100 μL HBSS into the left flank. Naïve mice inoculated with 5×10^5 CT-26 cells served as an internal control for cells' quality.

A549 cells = assay: XTT viability of A549 cells after direct gas exposure in 96-well plate; assay type: cell-based
Protocol: (§3) In vitro systems: One system involves a direct exposure of cancer cells to gNO in 96-well plate. Gaseous NO at 150 ppm-50,000 ppm was delivered at 0.3 LPM for 10 seconds—3 minutes. In another system, cancer cells were exposed to gNO in a box made of acrylic glass. Gaseous NO at 10,000-50,000 ppm was delivered at 0.9 LPM for 10 seconds—15 minutes.
(§4) The exposure of the cancer cells to gNO was done after removing the cell culture medium.
(§5) Immediately after gas exposure, cell culture medium was added, and the cells were incubated at a 37° C. and 5% CO2 incubator over-night. To test cell viability, XTT assay and Annexin V-Propidium Iodide assays were performed, according to known protocols.
A549 cells were prepared in RPMI medium and suspended in four 96-well plates. The wells were exposed to the gas by a tubing that was directed at each well for 10, 60 or 180 seconds. The diameter of the gas tubing used was about 25% of the diameter of each well. Three wells were used for each gas and exposure time. The plates were placed in a 5% CO2, 37° C. incubator for 15-18 hours and the viability of the cells was tested by XTT assay.

[1] = pH of cell suspension after ex-vivo gNO treatment of tumor cells; assay type: physicochemical; conditions: ex-vivo treatment of tumor cells with gNO
4T1 challenge tumor = assay: Challenge assay in 4T1 tumor-bearing mice; assay type: in vivo; conditions: 50,000 ppm gNO intra-tumorally for 10 minutes
Protocol: as §1, §2
In another challenge assay, 4T1 tumor-bearing mice were treated with 50,000 ppm gNO administered intra-tumorally by a 23G hypodermic needle for 10 minutes, and the effect of a local treatment with gNO on the primary tumor as compared to nitrogen was tested, as depicted in FIG. 16A. Fourteen days post gNO treatment, mice were re-inoculated with 10×10^5 4T1 cells subcutaneously (s.c.) (challenge assay). The percentage of tumor take was monitored by caliper measurements 2-3 times a week for 10 days. Naïve mice, inoculated with 4T1 for the first time, served as the control group. […]

B16.F10 cells = assay: XTT viability of B16.F10 cells after gas exposure in chamber; assay type: cell-based; conditions: 10,000 ppm-25,000 ppm gNO for 3-15 minutes
Protocol: as §3, §4, §5
B16.F10 cells were prepared in DMEM medium and suspended in 96-well plates. The plates were placed inside an approx. 2 liter exposure chamber. The plates were exposed to the gas by filling the chamber with gNO for 10 seconds, or 1, 3, 9 or 15 minutes. After exposure, the plates were placed in a 5% CO2, 37° C. incubator for an overnight incubation and the viability of the cells was tested by XTT assay.

[N]=O [gNO, nitric oxide]
tumor recurrence (CT26 tumor; 20,000 ppm gNO intra-tumorally 5 minutes, 17 days post-surgery): about 18% | tumor recurrence (CT26 tumor; 50,000 ppm gNO intra-tumorally 5 minutes, 17 days post surgery): 0% | viability of Panc02.03 cells (Panc02.03 cells): less than 5% | development of a secondary (challenge) LLC1 tumor (LLC1 challenge tumor): none of the gas-treated mice developed a secondary tumor | viability of A549 cells (A549 cells; 4000, 10,000, or 50,000 ppm gNO for 10 seconds): 50%-84% | viability of A549 cells (A549 cells; 4000, 10,000, or 50,000 ppm gNO for 60 seconds): 65%-96% | viability of A549 cells (A549 cells; 4000, 10,000, or 50,000 ppm gNO for 180 seconds): 45%-62% | pH of cell suspension comprising gNO-treated tumor cells [1]: acidic pH | development of a secondary (challenge) 4T1 tumor (4T1 challenge tumor; 5 days post challenge tumor inoculation): have not developed a secondary tumor | challenge tumor take compared to non-treated and nitrogen-treated mice (4T1 challenge tumor; 10 days post re-inoculation): a delay in the challenge tumor take was achieved | viability of B16.F10 cells (B16.F10 cells): less than 5%
